Assay results reported in article PMC10252614 (International Journal of Molecular Sciences, 2023).

What was measured:
SH-SY5Y cells [1] = test: intracellular ATP, luciferase luminescence assay; format: cell-based, human; conditions: 100 µM, 24 h
Description: (§1) Thus, SH-SY5Y cells were incubated with II-6h and III-6a (10 and 100 µM) for 24 h. After the treatment, dehydrogenase activity, glutathione levels, nuclear condensation and fragmentation, and ATP levels were measured (Figure 7). […] The decrease in dehydrogenase activity was found in cells treated with 100 µM II-6h (p < 0.001).
The quantification of intracellular ATP was performed using luciferase luminescence assay. After cell treatment with II-6h and III-6a (10–100 µM), the culture medium was replaced with 100 µL of cold water for cell lysis, incubated for 5 min and centrifuged (4800× g; 5 min; 4 °C). To detect intracellular ATP concentration, 90 µL of the reaction solution was added to 10 µL of a lysate. The reaction solution included 20× reaction buffer (500 mM Tricine buffer, pH 7.8; 10 mM MgSO4, 2 mM Na2EDTA), 5 mg/mL luciferase; 10 mM D-luciferin; 0.1 M DTT and dH2O. Luminometric measurement was performed at Em = 550 nm using SPARK microplate reader (Tecan, Grödig, Austria). The intracellular ATP levels were expressed as the percentage of total ATP level relative to that in the control cells (control = 100%) as mean ± SEM.

SH-SY5Y cells [2] = test: nuclear condensation and fragmentation, Hoechst 33258 assay; format: cell-based, human; conditions: 100 µM, 24 h
Description: as §1
To measure nuclear condensation and fragmentation in intact cells, we used fluorescence dye Hoechst 33258 (H33258, 1 mg/mL; Merck, USA). After cell treatment with II-6h (10–100 µM) and III-6a (10–100 µM), the cells grown in a 96-well plate were centrifuged (5 min; 8000g; RT). Then, 70 µL of a supernatant was replaced with 70 µL of PBS 1× and 10 µL of H33258 solution was added to a well. The final concentrations of H33258 in a well was 2 µg/mL. Then, the cells were incubated with H33258 for 5 min and spectrofluorometric measurement was performed at Ex/Em = 352/461 nm using SPARK microplate reader (Tecan, Austria) while incubated at 37 °C. The samples were measured at least in triplicates. After background subtraction, the fluorescence signal was presented in RFU as mean ± SEM.

Compound | intracellular ATP levels (in words) (SH-SY5Y cells [1]) | nuclear condensation and fragmentation (in words) (SH-SY5Y cells [2])
C#CCN(C)c1nc(NC2CCCCC2)c2ccc(Cl)cc2n1 [II-6h, 7-chloro-N4-cyclohexyl-N2-methyl-N2-(prop-2-yn-1-yl)quinazoline-2,4-diamine] | partial exhaustion of ATP | significant increase
C#CCN(C)c1nc(N)c2cc(OC)ccc2n1 [III-6a, 6-methoxy-N2-methyl-N2-(prop-2-yn-1-yl)quinazoline-2,4-diamine] |  | significant increase
